Laboratory results published in PMC12154787, “Comprehensive Evaluation of the Effects of Hot Air Drying Temperature on the Chemical Composition, Flavor Characteristics and Biological Activity of Houttuynia cordata Thunb” (Foods, 2025).

Assays:
[1] = Pharmacokinetics of HCT constituents in rat plasma after a single dose of HCT extract; format: in vivo, SD rats
Method: The quantification of target compounds was conducted using an LC-TQ5200 triple quadrupole mass spectrometer (Hexin Instruments, Guangzhou, China) coupled with a HILIC column (100 × 2.1 mm, 1.8 μm; ANPEL, Shanghai, China). Chromatographic separation was achieved under isocratic conditions with a mobile phase comprising (A) 0.1% formic acid in water and (B) acetonitrile (50:50, v/v) for 4 min at a flow rate of 0.3 mL/min. The column temperature was maintained at 30 °C with a 10 μL injection volume.
Mass spectrometric detection was performed in positive electrospray ionization (ESI) mode with multiple reaction monitoring (MRM). The optimized ion source parameters were as follows: drying gas temperature, 500 °C; spray voltage, 5500 V; nebulizer gas pressure, 70 psi (482.3 kPa); drying gas flow, 8 L/min; and curtain gas flow, 3 L/min. The collision cell operated with 0.4 mL/min collision gas flow under the following voltage settings: curtain plate 800 V, orifice 70 V, detector 2300 V, with cell entrance and exit voltages of 30 V and 1 V, respectively. All analyses were performed with three replicates (n = 3).
(§1) The animal study protocol was approved by the Animal Ethics Committee of Jiangxi University of Chinese Medicine (Approval No. TEMPOR20230112). A total of 24 female SD rats (200 ± 20 g) were obtained from the Laboratory Animal Center of Jiangxi University of Chinese Medicine (Nanchang, China). Prior to experimentation, the rats were acclimated for 7 days in an air-conditioned room maintained at 24 ± 1 °C with a 12 h light/dark cycle. After one week of acclimatization with ad libitum access to sterilized food and water, the rats were randomly divided into three groups (n = 8), including a negative control, FDH: freeze-dried HCT extract (treated with 600 mg/kg BW freeze-dried HCT extracts), 50H: 50 °C hot-air dried HCT extract (treated with 600 mg/kg BW 50 °C hot-air dried HCT extracts). Blood collection and the pretreatment of serum were conducted following our previously published protocols. The identification and quantification of metabolites in rat samples were performed using analytical methodologies consistent with those employed in our previous investigations.

[2] = Metabolite identification in rat serum by UPLC-LTQ-Orbitrap-MS2 after HCT extract; format: in vivo, SD rats; details: for Metabolite detected in Serum, 50H: 50H group (600 mg/kg BW 50 °C hot-air dried HCT extract); for Metabolite detected in Serum, FDH: FDH group (600 mg/kg BW freeze-dried HCT extract); as to all read-outs here: key: +: detected; —: undetected
Method: The chromatographic separation was performed on an ACQUITY UPLC BEH C18 column (2.1 × 100 mm, 1.7 μm) maintained at 25 °C. […] The mobile phase flow rate was maintained at 300 μL/min with a 2 μL injection volume.
Mass spectrometric detection was carried out using an LTQ-Orbitrap system equipped with a HESI-II source operating in both positive and negative ionization modes. Full scan MS data were acquired over m/z 50–2000 with mass resolution set to 30,000 (at m/z 400). For structural elucidation, data-dependent MS/MS scans were triggered using a normalized collision energy of 45 eV in the CID cell. The diode array detector was simultaneously monitored at 280 nm and 320 nm. All instrumental operations and data acquisition were controlled by Xcalibur v2.0 software (Thermo Scientific).
as §1, with “Prior to experimentation, the rats were acclimated for 7 days in an air-conditioned room maintained at 24 ± 1 °C with a 12 h light/dark cycle.” left out

[3] = female, SD, 50H: 600 mg/kg BW 50 °C hot-air dried HCT extract
[4] = female, SD, rat, plasma, 600 mg/kg, 50H: 600 mg/kg BW 50 °C hot-air dried HCT extract
[5] = female, SD, rat, plasma, 600 mg/kg, FDH: 600 mg/kg BW freeze-dried HCT extract
[6] = 50H: 600 mg/kg BW 50 °C hot-air dried HCT extract

Structure (SMILES)	AUC [1, 4] [µM·h]	AUC [1, 5] [µM·h]	Cmax [1, 5] [nM]	Metabolite detected in Serum, 50H [2]	Metabolite detected in Serum, FDH [2]	further results
O=C(/C=C/c1ccc(O)c(O)c1)O[C@@H]1C[C@](O)(C(=O)O)C[C@@H](O)[C@H]1O [Chlorogenic acid, chlorogenic acid]	0.222 ± 0.0225	0.231 ± 0.00787	104 ± 9.47			Tmax [1, 3]: 1.5 h; Cmax [1, 4]: 84.4 ± 2.26 nM; half-life [1, 4]: 2.05 ± 0.62 h; half-life [1, 5]: 2.25 ± 0.7 h
Nc1ccc(CCC(=O)O)c(C(=O)O)c1 [M14]				+	+	
O=C(O)[C@H]1O[C@@H](Oc2cc3oc(-c4ccc(O)cc4)cc(=O)c3c(O)c2O)[C@H](O)[C@@H](O)[C@@H]1O [Scutellarin, scutellarin]	0.121 ± 0.00462	0.116 ± 0.00702	23.9 ± 3.17			Tmax ([1]; female, SD, FDH: 600 mg/kg BW freeze-dried HCT extract): 1.5 h; Cmax [1, 4]: 22 ± 4.15 nM; half-life [1, 4]: 9.26 ± 4.35 h; half-life [1, 5]: 6.91 ± 0.65 h
CC(O)CC(=O)O (stereo not shown) [M13, 3-hydroxybutyrate]				+		
O=c1c(O)c(-c2ccc(O)c(O)c2)oc2cc(O)cc(O)c12 [Quercetin, quercetin]	2.32 ± 0.0574	2.551 ± 0.017	410 ± 12			Cmax [1, 6]: 378 ± 21.4 nM; T1/2 [1, 6]: 7.28 ± 4.47 h; T1/2 ([1]; FDH: 600 mg/kg BW freeze-dried HCT extract): 4.46 ± 0.14 h; Tmax [1, 3]: 2 h
O=C(O)CCc1ccc(O)c(O)c1 [M10, dihydrocaffeic acid]				+	+	
O=c1cc(-c2ccc(O)cc2)oc2cc(O)cc(O)c12 [M23, apigenin]					+	
CCCCCCCCCC(=O)CC(=O)O [M27, decanoyl acetic acid]				+	+	
COc1cc(C(=O)O)ccc1OC(C)=O [M3, 4-acetyloxy-3-methoxybenzoic acid]				+	+	
C[C@@H]1O[C@@H](OC[C@H]2O[C@@H](Oc3c(-c4ccc(O)c(O)c4)oc4cc(O)cc(O)c4c3=O)[C@H](O)[C@@H](O)[C@@H]2O)[C@H](O)[C@H](O)[C@H]1O [Rutin, rutin]	0.277 ± 0.0123	0.328 ± 0.00568	136 ± 16			Tmax [1, 3]: 1 h; Cmax [1, 4]: 125 ± 4.95 nM; half-life [1, 4]: 2.04 ± 0.5 h; half-life [1, 5]: 2.61 ± 1.23 h
CCCCCCCCC=CCCCCCCCC(=O)O [M37, 9-octadecenoic acid]				+	+	
COc1c(O)cc2oc(-c3ccc(O)cc3)cc(=O)c2c1O [M18, hispidulin]					+	
O=C(O)c1ccc(O)c(O)c1 [M2, protocatechuic acid]				+	+	
